This note sets out measurements from BindingDB's records for doi:10.7270/Q2JD4V7Q (The Scripps Research Institute Molecular Screening Center, 2010).

A value given as a limit tells only on which side of the number the result lay.

For orientation: IC50 means the concentration needed to halve the response being measured. A high value points to weaker potency in that assay.

For this experiment, the target named is T1, NADPH oxidase 1 (Homo sapiens, UniProt Q9Y5S8).
T1 sequence (Q9Y5S8 whole entry): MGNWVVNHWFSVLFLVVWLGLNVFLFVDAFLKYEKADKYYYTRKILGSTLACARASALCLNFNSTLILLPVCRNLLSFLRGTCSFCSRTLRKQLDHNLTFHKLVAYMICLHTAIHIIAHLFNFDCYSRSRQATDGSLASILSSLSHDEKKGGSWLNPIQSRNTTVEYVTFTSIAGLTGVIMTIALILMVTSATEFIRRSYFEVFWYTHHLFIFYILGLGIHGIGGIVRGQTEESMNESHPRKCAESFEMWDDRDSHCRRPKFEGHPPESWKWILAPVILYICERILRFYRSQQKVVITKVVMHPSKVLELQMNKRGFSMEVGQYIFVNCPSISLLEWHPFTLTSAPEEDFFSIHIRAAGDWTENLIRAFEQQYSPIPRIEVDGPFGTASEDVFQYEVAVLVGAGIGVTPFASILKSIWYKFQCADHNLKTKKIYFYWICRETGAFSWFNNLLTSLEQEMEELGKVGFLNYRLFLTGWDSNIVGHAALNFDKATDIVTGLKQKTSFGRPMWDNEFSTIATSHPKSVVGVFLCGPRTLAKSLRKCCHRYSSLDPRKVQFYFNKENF
Briefly: XO enzyme superoxide output inhibition – biochemical, IC50, set 2, NOX1 inhibitor project, late-stage follow-up (AID 435009).

As for `CN(C)c1ccc(CN=Nc2c(Cl)cncc2Cl)cc1`, the IC50 was more than 50 µM.
`Oc1c(Br)cc(CN=Nc2c(Cl)cncc2Cl)cc1Br` [4-[[2-[3,5-bis(chloranyl)pyridin-4-yl]hydrazinyl]methylidene]-2,6-bis(bromanyl)cyclohexa-2,5-dien-1-one] returned an IC50 of more than 50 µM.
